Patent EP4512806A1, “MOLECULAR GLUE DEGRADERS AND USES THEREOF” (Mablink Bioscience, priority 2023, dated 2025)

Legend:
[1] = In vivo mice tolerability assessment; settings: female CD-1 mice, single intravenous 1mg/kg dose, Mean
Description: All animal procedures were performed in accordance with the European Union directive 86/609/EEC. Experiments were performed under individual permit and in accredited animal care facilities.
Mouse tolerability experiments were performed with selected compounds of the disclosure. Female CD-1 mice (n=5 mice per group) were treated with a single intravenous 1mg/kg dose of compound. Vehicle was PBS pH 6.0. Mice were carefully monitored for mortality, external clinical findings, weight loss, behavior and apparent signs of toxicity over the course of 21 days.

[2] = tested on: 340 protein kinases; experiment: Kinase screening assay (radiometric 33PanQinase ActivityAssay); format: biochemical, human; settings: final compound concentration of 10 µM; most inhibited kinases belong to CMGC family, particularly CDK; 23 out of the 30 most inhibited were CDK/Cyclin complexes
Description: Compound 2384 according to the disclosure was subjected to kinase screening assays (performed at Reaction Biology, Germany). The screening assay was performed at a final compound concentration of 10 µM. A radiometric protein kinase assay (33PanQinase® ActivityAssay) was used for measuring the kinase activity of 340 protein kinases. All kinase assays were performed in 96-well FlashPlates™ from Perkin Elmer (Boston, MA, USA) in a 50 µL reaction volume. […] All PKC assays (except the PKC-mu and the PKC-nu assay) additionally contained 1 mM CaCl2, 4 mM EDTA, 5 µg/ml Phosphatidylserine and 1 µg/ml 1,2-Dioleyl-glycerol. The CAMK1D, CAMK2A, CAMK2B, CAMK2D, CAMK2G, CAMK4, CAMKK1, CAMKK2, DAPK2, EEF2K, MYLK, MYLK2 and MYLK3 assays additionally contained 1 µg/ml Calmodulin and 0.5 mM CaCl2. The PRKG1 and PRKG2 assays additionally contained 1 µM cGMP. The DNA-PK assay additionally contained 2.5 µg/ml DNA. The protein kinase reaction cocktails were incubated at 30°C for 60 minutes. The reaction was stopped with 50 µl of 2 % (v/v) H3PO4, plates were aspirated and washed two times with 200 µL 0.9 % (w/v) NaCl. Incorporation of 33Pi (counting of "cpm") was determined with a microplate scintillation counter (Microbeta, Wallac). All protein kinase assays were performed with a BeckmanCoulter Biomek 2000/SL robotic system. […]

With `N[C@H]1CC[C@H](Nc2nc(NCc3ccc(-c4ccccn4)cc3)n3ncc(Br)c3n2)CC1` [Compound 2384] the “average weight change (% initial weight)” value ([1]; Study Day 1) was 0.0 % initial weight, the “average weight change (% initial weight)” value ([1]; Study Day 2) was -2.5 % initial weight and the “average weight change (% initial weight)” value ([1]; Study Day 3) was -7.1 % initial weight. The “average weight change (% initial weight)” value ([1]; Study Day 4) was -14.6 % initial weight, the “average weight change (% initial weight)” value ([1]; Study Day 5) was -15.2 % initial weight and the “average weight change (% initial weight)” value ([1]; Study Day 6) was -14.9 % initial weight. For the same molecule, the “average weight change (% initial weight)” value ([1]; Study Day 7) was -12.4 % initial weight, the “average weight change (% initial weight)” value ([1]; Study Day 8) was -9.2 % initial weight and the “average weight change (% initial weight)” value ([1]; Study Day 9) was -7.3 % initial weight. For the same molecule, the “average weight change (% initial weight)” value ([1]; Study Day 10) was -1.9 % initial weight, the “average weight change (% initial weight)” value ([1]; Study Day 11) was -0.7 % initial weight and the “average weight change (% initial weight)” value ([1]; Study Day 12) was 4.1 % initial weight. For the same molecule, the “average weight change (% initial weight)” value ([1]; Study Day 13) was 1.9 % initial weight, the “average weight change (% initial weight)” value ([1]; Study Day 14) was -1.8 % initial weight and the “average weight change (% initial weight)” value ([1]; Study Day 15) was -3.4 % initial weight. For the same molecule, the “average weight change (% initial weight)” value ([1]; Study Day 16) was -4.1 % initial weight, the “average weight change (% initial weight)” value ([1]; Study Day 17) was -1.6 % initial weight and the “average weight change (% initial weight)” value ([1]; Study Day 18) was -0.5 % initial weight. For the same molecule, the “average weight change (% initial weight)” value ([1]; Study Day 19) was 0.7 % initial weight, the “average weight change (% initial weight)” value ([1]; Study Day 20) was 2.6 % initial weight and the “average weight change (% initial weight)” value ([1]; Study Day 21) was 2.0 % initial weight. The “inhibition of most inhibited kinases” value [2] was “more than 90%”.
